Test results from patent US7351581B2, “In vivo method for producing female offsprings in bovines” (priority 2000, dated 2008).

Assays:
buffaloes = assay: Example 3: vinegar, dilute acetic acid or acidified sodium acetate, no control group, buffaloes
Method: (§1) The first study was conducted in a population primarily comprising cows and buffaloes. […] Equal number of animals were used in the standard/control group for comparison. The animals were in the study group were allowed to undergo one insemination. Thereafter, i.e. within 35-50 minutes, the material prepared according to the process described in Example 1 was administered to the animals in the study group. The animals in the control/standard group were not subject to administration of any material. Mating or insemination was not controlled. All the animals were allowed to move freely in their usual environment and were kept on normal diet. Their behavior and temperature/temperament especially of the study group. was monitored.
(§2) These animals were administered vinegar, dilute acetic acid, and sodium acetate solution in acidic pH separately.

cows = assay: Example 3: vinegar, dilute acetic acid or acidified sodium acetate, no control group, cows
Method: as §1, §2

cows and buffaloes = assay: Example 3: totals for cows and buffaloes together
Method: as §1, §2

Structure (SMILES)	Animals not conceived (buffaloes)	No. of Miscarriages (buffaloes)	OFFSPRING Females (buffaloes)	OFFSPRING Males (buffaloes)	OFFSPRING Females (cows; cows, no control group)	OFFSPRING Males (cows; cows, no control group)	Animals not conceived (cows; female, cows, in vivo)	No. of Miscarriages (cows; in vivo)	female offsprings delivered (cows and buffaloes; cows and buffaloes together)	share of female offsprings (cows and buffaloes; cows and buffaloes together)	animals that did not conceive (cows and buffaloes; female, cows and buffaloes, in vivo)	animals that reported miscarriage (cows and buffaloes; in vivo)	Animals not conceived (cows; cows, no control group)	No. of Miscarriages (cows; cows, no control group)	animals that did not conceive (cows and buffaloes; cows and buffaloes together)
CC(=O)O [Acetic Acid dilute, acetic acid]	3	Nil	11	Nil	6	Nil	2	Nil	17	100%	5	no animals reported miscarriage			
CC(=O)[O-].[Na+] [Sodium Acetate Acidified, sodium acetate]	2	Nil	8	Nil	4	Nil			12	100%			1	Nil	3
